Where two headings read alike, the source gives them in different places.
Columns and labels:
ACHN = assay: NCI60 5-dose screen, ACHN; assay type: cell-based; conditions: Homo sapiens, renal cancer, Fig 1D, read-out: Log10 GI50 (ACHN) (converted)
Description: (§1) The screening methodology used in the NCI60 Cell 5-Doses screen is described in detail at https://dtp.cancer.gov/discovery_development/nci-60/methodology.htm. Briefly, cells are seeded in 96 well plates at an appropriate density and incubated for 1 day. After 1 day, some of the plates are processed to determine a time zero density. To the remaining plates, compounds are added over a 5-log M concentration range (1 log dilutions from 10^-4M to 10^-8M). Plates are incubated for two additional days, then fixed and stained with sulforhodamine B. Growth inhibition is calculated relative to cells without drug treatment and the time zero control. The GI50 is the concentration of a compound that causes 50% growth inhibition, relative to the no drug control.

Jurkat cells [1] = assay: Cell cycle analysis (DAPI, high content imaging), Jurkat; assay type: cell-based, human; conditions: 24 hours
Description: Cell viability in cancer cell lines treated with compound was measured in a 3-day MTS cell proliferation assay using the CellTiter 96 AQueous Non-Radioactive Cell Proliferation Assay reagent (Promega) according to the manufacturer’s instructions. Absorbance was read at 490 nm on a SaFire II microplate reader (Tecan). CC50 values were calculated by fitting the obtained MTS cell viability data in GraphPad Prism using a 4-parameter log–based fit for inhibitors. Apoptosis induction and cell death upon compound treatment in PBMC was measured using the Alexa Fluor 488 Annexin V/Dead Cell Apoptosis Kit (Thermo Fisher Scientific), with readout on a FACSCanto II flow cytometer (BD Biosciences). For cell cycle analysis, Jurkat cells were seeded at 400,000 cells per well in 12-well tissue culture plates and treated with the test compounds at the indicated concentrations for 24 h. Cells were then harvested by centrifugation at 400 x g, washed in PBS and transferred to an 8-well μ-Slide (Ibidi) that had been pretreated with 0.1% (w/v) poly-L-lysine (Sigma). Cells were allowed to adhere to the slides, fixed with 4% PFA in PBS for 10 minutes, washed and stained with DAPI. […] The compounds were evaluated in duplo in two independent experiments.

[2] = test system: NCI-60 Human Tumor Cell Lines; assay: NCI-60 Human Tumor Cell Lines Screen (whole panel); assay type: cell-based; conditions: NCI-60 panel; for GI50: Homo sapiens, mean across all cell lines
Description: as §1

Jurkat cells [3] = assay: Apoptosis induction, annexin V/PI staining, Jurkat; assay type: cell-based, human; conditions: 24 hours, dose-dependent
OVCAR-3 = assay: NCI60 5-dose screen, OVCAR-3; assay type: cell-based; conditions: Homo sapiens, ovarian cancer, Fig 1D, read-out: Log10 GI50 (OVCAR-3) (converted)
Description: as §1

A498 = assay: NCI60 5-dose screen, A498; assay type: cell-based; conditions: Homo sapiens, renal cancer, Fig 1D, read-out: Log10 GI50 (A498) (converted)
Description: as §1

UO-31 = assay: NCI60 5-dose screen, UO-31; assay type: cell-based; conditions: Homo sapiens, renal cancer, Fig 1D, read-out: Log10 GI50 (UO-31) (converted)
Description: as §1

KM12 = assay: NCI60 5-dose screen, KM12; assay type: cell-based; conditions: Homo sapiens, colon cancer, Fig 1D, read-out: Log10 GI50 (KM12) (converted)
Description: as §1

OVCAR-8 = assay: NCI60 5-dose screen, OVCAR-8; assay type: cell-based; conditions: Homo sapiens, ovarian cancer, Fig 1D, read-out: Log10 GI50 (OVCAR-8) (converted)
Description: as §1

SK-MEL-28 = assay: NCI60 5-dose screen, SK-MEL-28; assay type: cell-based; conditions: Homo sapiens, melanoma, Fig 1D, read-out: Log10 GI50 (SK-MEL-28) (converted)
Description: as §1

BT-549 = assay: NCI60 5-dose screen, BT-549; assay type: cell-based; conditions: Homo sapiens, breast cancer, Fig 1D, read-out: Log10 GI50 (BT-549) (converted)
Description: as §1

HCC-2998 = assay: NCI60 5-dose screen, HCC-2998; assay type: cell-based; conditions: Homo sapiens, colon cancer, Fig 1D, read-out: Log10 GI50 (HCC-2998) (converted)
Description: as §1

HL-60(TB) = assay: NCI60 5-dose screen, HL-60(TB); assay type: cell-based; conditions: Homo sapiens, leukemia, Fig 1D, read-out: Log10 GI50 (HL-60(TB)) (converted)
Description: as §1

MDA-MB-468 = assay: NCI60 5-dose screen, MDA-MB-468; assay type: cell-based; conditions: Homo sapiens, breast cancer, Fig 1D, read-out: Log10 GI50 (MDA-MB-468) (converted)
Description: as §1

HT29 = assay: NCI60 5-dose screen, HT29; assay type: cell-based; conditions: Homo sapiens, HT-29; colon cancer; Fig 1D; read-out: Log10 GI50 (HT29) (converted)
Description: as §1

DU-145 = assay: NCI60 5-dose screen, DU-145; assay type: cell-based; conditions: Homo sapiens, prostate cancer, Fig 1D, read-out: Log10 GI50 (DU-145) (converted)
Description: as §1

COLO 205 = assay: NCI60 5-dose screen, COLO 205; assay type: cell-based; conditions: Homo sapiens, colon cancer, Fig 1D, read-out: Log10 GI50 (COLO 205) (converted)
Description: as §1

786-0 = assay: NCI60 5-dose screen, 786-0; assay type: cell-based; conditions: Homo sapiens, renal cancer, Fig 1D, read-out: Log10 GI50 (786-0) (converted)
Description: as §1

CAKI-1 = assay: NCI60 5-dose screen, CAKI-1; assay type: cell-based; conditions: Homo sapiens, renal cancer, Fig 1D, read-out: Log10 GI50 (CAKI-1) (converted)
Description: as §1

M14 = assay: NCI60 5-dose screen, M14; assay type: cell-based; conditions: Homo sapiens, melanoma, Fig 1D, read-out: Log10 GI50 (M14) (converted)
Description: as §1

HCT-15 = assay: NCI60 5-dose screen, HCT-15; assay type: cell-based; conditions: Homo sapiens, colon cancer, Fig 1D, read-out: Log10 GI50 (HCT-15) (converted)
Description: as §1

NCI-H460 = assay: NCI60 5-dose screen, NCI-H460; assay type: cell-based; conditions: Homo sapiens, non-small cell lung cancer, Fig 1D, read-out: Log10 GI50 (NCI-H460) (converted)
Description: as §1

PC-3 = assay: NCI60 5-dose screen, PC-3; assay type: cell-based; conditions: Homo sapiens, prostate cancer, Fig 1D, read-out: Log10 GI50 (PC-3) (converted)
Description: as §1

[4] = Fig 1D, read-out: mean GI50 (log10) (converted)
[5] = read-out: mean GI50 across the panel

SMILES	GI50 (ACHN) [nM]	effect on cell cycle progression (Jurkat cells [1])	GI50 [2, 4] [nM]	GI50 [2, 5] [nM]	apoptosis induction (Jurkat cells [3])	GI50 (OVCAR-3) [nM]	GI50 (A498) [nM]	GI50 (UO-31) [nM]	GI50 (KM12) [nM]	GI50 (OVCAR-8) [nM]	GI50 (SK-MEL-28) [nM]	GI50 (BT-549) [nM]	GI50 (HCC-2998) [nM]	GI50 (HL-60(TB)) [nM]	GI50 (MDA-MB-468) [nM]	GI50 (HT29) [nM]	GI50 (DU-145) [nM]	GI50 (COLO 205) [nM]	GI50 (786-0) [nM]	GI50 (CAKI-1) [nM]	other results
Cc1cc(C)cc(Nc2ccc([N+](=O)[O-])c(NCCN3CCOCC3)n2)c1 [Compound 4AZA2891, 6-(3,5-dimethylanilino)-2-(2-morpholinoethylamino)-3-nitropyridine]	12	induce G2 cell cycle arrest	35.5	35.5	induce apoptosis	< 10	< 10	1380	< 10	37.2	2750	58.9	28.8	25.7	< 10	18.6	41.7	21.4	52.5	< 10	GI50 (M14): 12 nM; GI50 (HCT-15): < 10 nM; GI50 (NCI-H460): 17.4 nM; GI50 (PC-3): 10.5 nM
Cc1ccnc(Nc2ccc([N+](=O)[O-])c(NCCN3CCOCC3)n2)c1 [Compound 4AZA2996, N^6-(4-methylpyridin-2-yl)-N^2-(2-morpholinoethyl)-3-nitropyridine-2,6-diamine]	< 10	induce G2 cell cycle arrest	21.9	21.9	induce apoptosis	< 10	< 10	< 10	< 10	20	12600	19.1	17	< 10	27.5	< 10	25.7	< 10	12.9	< 10	number of cell lines with GI50 lower than 10 nM ([2]; out of the cell lines tested): 31 of the 50; GI50 (M14): < 10 nM; GI50 (HCT-15): < 10 nM; GI50 (NCI-H460): < 10 nM; GI50 (PC-3): < 10 nM

From PMC11542830, “3-nitropyridine analogues as novel microtubule-targeting agents” (PLOS ONE, 2024)
